Reference: US20220017520A1, “MACROCYCLIC COMPOUND AS CDK INHIBITOR, PREPARATION METHOD THEREFOR, AND USE THEREOF IN MEDICINE” (Keythera (Suzhou) Pharmaceuticals Co. Ltd., priority 2018, published 2022)
Like-named read-outs stand apart in the source and are kept apart here.

Columns and labels:
[1] = tested on: neointima formation; conditions: rats; cited from earlier work
[2] = amide bond, HATU, dichloromethane, 25.0 °C, 16.0 h
[3] = biological target: CDK4/D3 (Homo sapiens, UniProt P11802); test: Inhibitory activity on CDK4 kinase by Caliper Mobility Shift method; type: biochemical; conditions: CDK4/D3, 28° C. for 5 hours
CDK4/D3, sequence (P11802 whole entry, species assumed): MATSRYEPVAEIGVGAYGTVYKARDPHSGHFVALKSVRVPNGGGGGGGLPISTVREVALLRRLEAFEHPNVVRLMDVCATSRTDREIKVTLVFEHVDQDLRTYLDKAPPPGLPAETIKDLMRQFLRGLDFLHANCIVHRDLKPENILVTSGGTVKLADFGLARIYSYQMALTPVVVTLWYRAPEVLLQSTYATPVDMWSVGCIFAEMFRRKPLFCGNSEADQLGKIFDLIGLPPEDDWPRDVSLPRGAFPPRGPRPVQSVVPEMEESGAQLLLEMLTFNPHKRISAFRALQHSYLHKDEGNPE
CDK4/D3, sequence (P30281 whole entry partner, species assumed): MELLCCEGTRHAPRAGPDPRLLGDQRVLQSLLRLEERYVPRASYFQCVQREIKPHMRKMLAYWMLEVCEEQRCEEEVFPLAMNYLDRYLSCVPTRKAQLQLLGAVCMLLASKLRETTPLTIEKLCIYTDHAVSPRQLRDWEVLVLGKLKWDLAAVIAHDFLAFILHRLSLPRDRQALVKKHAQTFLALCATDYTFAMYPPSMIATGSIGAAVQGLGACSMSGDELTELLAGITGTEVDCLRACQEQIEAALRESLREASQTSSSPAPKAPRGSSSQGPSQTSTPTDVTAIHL
Procedure: Determination of Inhibitory Effect on CDK4/Cyclin D1
The determination of IC50 of CDK4/Cyclin D1 was conducted according to the following process. A 96-well filter plate (Millipore MADVN6550) was used. The total volume was 0.1 ml, containing buffer solution A (20 mM TRIS (tris[hydroxymethyl]aminomethane) (pH7.4), 50 mM NaCl, 1 mM dithiothreitol, 10 mM MgCl2), 2 μM ATP (containing […][32P]ATP), 20 ng CDK4, […] retinoblastoma protein and the test compound diluted in buffer solution A in an appropriate ratio. Buffer solution A alone without the test compound was used as the control without inhibitory effect. Buffer solution A containing excess EDTA was used to determine the background 32P level in the absence of enzymatic activity. All components except ATP were added to the wells, and the plate was shaked on a plate mixer for 2 minutes. [32P]ATP was added to initiate the reaction, and the plate was incubated at 25° C. for 15 minutes. 0.1 ml of 20% trichloroacetic acid (TCA) was added to stop the reaction. The plate was kept at 4° C. for at least 1 hour to allow the substrate to precipitate. The wells were washed five times with 0.2 ml of 10% TCA, and the binding of 32P was measured using a R plate counter (wallac Inc., Gaithersburg, Md.). IC50 of the test compound was determined by median effect method (Chou, T-C and Talalay P. Applications of the median effect principle for the assessment of low-dose risk of carcinogens and for the quantitation of synergism and antagonism of chemotherapeutic agents. In New Avenues in Developmental Cancer Chemotherapy (Eds. Harrap, K. T. and Connors, T. A.), pp. 37-64. Academic Press, New York, 1987).
(§1) Experimental method: Inhibitory activity on CDK4/6 kinase was determined by Caliper Mobility Shift method
1) Preparation of 1-fold CDK4 kinase buffer solution
800 μL of 1000 mM HEPES stock solution (pH 7.5) and 40 μL of 10% Triton X-100 stock solution were added to 39160 μL of ultra pure water, and the resulting solution was mixed well.
(§2) 25 mL of 4% Coating Reagent #3 (provided with the 12-sipper chip used in Caliper device) stock solution, 50 mL of 1000 mM HEPES stock solution (pH 7.5), 50 mL of 0.5 M EDTA stock solution and 0.25 mL of 30% Brij-35 stock solution were added to 374.75 mL of ultra pure water, and the resulting solution was mixed well.
1) Preparation of 2.5-fold CDK4/D3 kinase solution
7 μL of CDK4/D3 enzyme solution and 9 μL of 1M DTT stock solution were added to 1784 μL of 1-fold CDK4 kinase buffer solution, and the resulting solution was mixed well.
1) Preparation of 2.5-fold CDK4/D3 polypeptide solution
10 µL of 100 mM ATP stock solution, 45 μL of 1M MgCl2 stock solution and 45 μL of FAM-labelled polypeptide 8 were added to 1700 μL of 1-fold CDK4 kinase buffer solution, and the resulting solution was mixed well.
(§3) A 10 mM solution of the test compound in DMSO was diluted with DMSO to obtain a solution with a concentration of 50 μM, which was used as the stock solution. Said stock solution was subjected to 4-fold gradient dilution with DMSO to obtain solutions with a concentration of […], 3.12 μM, 0.78 μM, 0.19 μM, 0.048 μM, 12.2 nM, 3 nM, 0.76 nM and 0.19 nM, respectively. Each of the resulting solution was 10-fold diluted with 1-fold kinase buffer solution to obtain a 5-fold compound solution.
(§4) 1) 5 μL of the prepared 5-fold test compound solution and 10 μL of the prepared 2.5-fold kinase solution were added to the corresponding wells in a 384-well plate, and the plate was incubated at room temperature for 10 minutes.
(§5) 2) 10 μL of the prepared 2.5-fold polypeptide solution was added to the corresponding wells to start the enzymatic reaction, and the plate was incubated at 28° C. for 5 hours.
(§6) 25 μL of stop solution was added to each corresponding well to stop the reaction.
(§7) 8. The data was read by the Caliper device, the inhibition rate was calculated by the following formula, and curve fitting was carried out by GraphPad5.0 software to obtain the IC50 value.

[4] = biological target: CDK6/D3 (Homo sapiens, UniProt Q00534); test: Inhibitory activity on CDK6 kinase by Caliper Mobility Shift method; type: biochemical; conditions: CDK6/D3, 28° C. for 5 hours
CDK6/D3, sequence (Q00534 whole entry, species assumed): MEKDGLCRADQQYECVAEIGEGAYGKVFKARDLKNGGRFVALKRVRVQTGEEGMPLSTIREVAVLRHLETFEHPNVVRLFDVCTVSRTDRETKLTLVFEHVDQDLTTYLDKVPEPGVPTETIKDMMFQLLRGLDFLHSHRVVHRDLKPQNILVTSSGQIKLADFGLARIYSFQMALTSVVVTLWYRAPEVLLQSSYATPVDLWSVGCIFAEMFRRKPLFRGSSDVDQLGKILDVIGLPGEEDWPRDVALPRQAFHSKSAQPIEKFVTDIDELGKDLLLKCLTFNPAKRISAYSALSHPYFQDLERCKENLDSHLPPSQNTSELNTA
CDK6/D3, sequence (P30281 whole entry partner, species assumed): as the sequence (P30281 whole entry partner, species assumed) above
Procedure: as §1
2) Preparation of 1-fold CDK6 kinase buffer solution
50 mL of 1000 mM HEPES stock solution (pH 7.5) and 50 μL of 30% Brij-35 stock solution were added to 949.95 mL of ultra pure water, and the resulting solution was mixed well.
as §2
2) Preparation of 2.5-fold CDK6/D3 kinase solution 18 μL of CDK6/D3 enzyme solution and 14 μL of 1M DTT stock solution were added to 2768 μL of 1-fold CDK6 kinase buffer solution, and the resulting solution was mixed well.
2) Preparation of 2.5-fold CDK6/D3 polypeptide solution
23 μL of 100 mM ATP stock solution, 75 μL of 1M MgCl2 stock solution and 75 μL of FAM-labelled polypeptide 8 were added to 2827 μL of 1-fold CDK6 kinase buffer solution, and the resulting solution was mixed well.
as §3, §4, §5, §6, §7

[5] = tested on: MCF-7 cells; test: In vitro cell proliferation assay by BrdU method; type: cell-based; conditions: Homo sapiens, MCF7, 72 hours, 10% FBS
Procedure: In Vitro Cell Inhibitory Activity of the Compound of the Present Invention
Experimental method: Cell proliferation assay was carried out by BrdU method (BrdU cell proliferation assay kit, Cell Signaling Technology Co.)
Preparation of gradient dilution solution of test compound: the 10 mM stock solution of test compound was subjected to 4-fold serial gradient dilution with DMSO to obtain solutions with a concentration of 2.5 mM, […], respectively. 2 μL of DMSO-diluted compound was added to 198 μL of culture medium containing 10% FBS to obtain 10-fold test compound, wherein the maximum concentration of the test compound was 10 μM, the DMSO concentration was 1%, with a total of 7 concentration gradients.
MCF-7 culture medium: DMEM+10% FBS+0.01 mg/mL insulin
(1) Cells grown to 80% (in exponential growth phase) were digested with pancreatin, and were collected by centrifugation. MDA-MB-435S cells and U87MG cells were re-suspended in a FBS-free culture medium, counted and inoculated to a 96-well plate; MDA-MB-435S cells were inoculated at 3000 cells/well/81 μL, and U87MG cells were inoculated at 4000 cells/well/81 μL. MCF-7 cells were resuspended in a culture medium containing 1% FBS, counted and inoculated to a 96-well plate at 4000 cell/well/82 μL. The cells were incubated in a cell incubator at 37° C.
(2) After 24 hours of incubation, FBS (9 μL) was added to each well of the MDA-MB-435S cells and U87MG cells, and 8 μL of FBS was added to each well of the MCF-7 cells, so as to obtain a final FBS concentration of 10%.
(3) A different concentration of 10-fold test compound (10 μL) was added to each well to obtain a final concentration of test compound of 10 μM, 2.5 μM, 625 nM, 156 nM, 39 nM, 9.8 nM or 2.5 nM, respectively, with 3 repeated wells/group, and the cells were incubated at 37° C. for 72 hours.
(4) 10-fold BrdU solution (10 μL) was added to each well, and the cells were incubated in the incubator for 4 hours, followed by discarding the culture medium.
(5) Fixing/denaturation solution (10 μL) was added to each well, and the cells were incubated at room temperature for 30 minutes, followed by discarding the solution.
(6) 1-fold detection antibody solution (100 μL) was added to each well, the cells were incubated at room temperature for 1 hour, followed by discarding the solution, and the cells were washed with 1-fold washing solution (200 μL/well) three times.
(7) 1-fold HRP-labelled secondary antibody solution (100 μL) was added to each well, the cells were incubated at room temperature for 30 minutes, followed by discarding the solution, and the cells were washed with 1-fold washing solution (200 μL/well) three times.
(8) TMB substrate solution (100 μL) was added to each well, and the cells were incubated at room temperature for 30 minutes.
(9) Stop solution (100 μL) was added to each well, and the OD value at 450 nm was measured by a microplate reader.
1) Cell survival rate (%)=(ODtest compound−ODblank control)/(ODnormal cell control−ODblank control)×100%,
2) The data was processed by GraphPad Prism 5 software to obtain the curve and IC50 values.

Row | SMILES | IC50 [3] | IC50 [4] | IC50 [5] | also measured
1 | COc1ccc(CNc2nc(N(CCO)CCO)nc3c2ncn3C(C)C)cc1 [CVT-313] | – | – | – | inhibition of neointima formation [1]: greater than 80%
2 | CCN1CCN(Cc2cnc3cc2NC(=O)C[C@H](C)n2c(C)nc4c(F)cc(cc42)-c2nc(ncc2F)N3)CC1 [Example 3, (S)-4^5-((4-Ethylpiperazin-1-yl)methyl)-1^4,2^5-difluoro-1^2,8-dimethyl-1^1H-3,5-diaza-1(6,1)-benzo[d]imidazola-2(4,2)-pyrimidina-4(2,4)-pyridinacyclooctaphan-6-one] | 15 nM | 27 nM | 4120 nM | –
3 | CCN1CCN(Cc2cnc3cc2NCCC(C)n2c(C)nc4c(F)cc(cc42)-c2nc(ncc2F)N3)CC1 (stereo not shown) [Example 5, 4^5-((4-Ethylpiperazin-1-yl)methyl)-1^4,2^5-difluoro-1^2,8-dimethyl-1^1H-3,5-diaza-1(6,1)-benzo[d]imidazola-2(4,2)-pyrimidina-4(2,4)-pyridinacyclooctaphane] | 21 nM | 14 nM | – | –
4 | CCN1CCN(Cc2cnc3cc2NC(=O)CC(C)n2ccc4ccc(cc42)-c2nc(ncc2F)N3)CC1 (stereo not shown) [Example 7, 4^5-((4-Ethylpiperazin-1-yl)methyl)-2^5-fluoro-8-methyl-1^1H-3,5-diaza-1(6,1)-indola-2(4,2)-pyrimidina-4(2,4)-pyridinacyclo-octaphan-6-one] | 1.5 nM | 2.5 nM | – | ring closure, yield of all isomers ([2]; from CCN1CCN(Cc2cnc(Nc3ncc(F)c(-c4ccc5ccn(C(C)CC(=O)O)c5c4)n3)cc2N)CC1, 14.0 mM): 33.3%
5 | CCN1CCN(Cc2cnc3cc2NC(=O)CC(C)(C)n2c(C)nc4c(F)cc(cc42)-c2nc(ncc2F)N3)CC1 [Example 8, 4^5-((4-Ethylpiperazin-1-yl)methyl)-1^4,2^5-difluoro-1^2,8,8-trimethyl-1^1H-3,5-diaza-1(6,1)-benzo[d]imidazola-2(4,2)-pyrimidina-4(2,4)-pyridinacyclooctaphan-6-one] | 8 nM | 10 nM | – | –
6 | CCN1CCN(Cc2cnc3cc2NC(=O)CC2(CC2)n2c(C)nc4c(F)cc(cc42)-c2nc(ncc2F)N3)CC1 [Example 9, 5′-((4-Ethylpiperazin-1-yl)methyl)-4′,5′-difluoro-2′-methylspiro[cyclopropane-1,8′-3,5-diaza-1(6,1)-benzo[d]imidazola-2(4,2)-pyrimidina-4(2,4)-pyridinacyclooctaphan]-6′-one] | 5 nM | 12 nM | – | –

The next lines start with results.

Row | IC50 [3] | IC50 [4] | IC50 [5] | SMILES | also measured
7 | 0.7 nM | 0.48 nM | 142 nM | CCN1CCN(Cc2cnc3cc2NC(=O)CC(C)n2c(C)nc4c(F)cc(cc42)-c2nc(ncc2F)N3)CC1 (stereo not shown) [Example 1, 4^5-((4-Ethylpiperazin-1-yl)methyl)-1^4,2^5-difluoro-1^2,8-dimethyl-1^1H-3,5-diaza-1(6,1)-benzo[d]imidazola-2(4,2)-pyrimidina-4(2,4)-pyridinacyclooctaphan-6-one] | ring closure, yield of all isomers ([2]; from CCN1CCN(Cc2cnc(Nc3ncc(F)c(-c4cc(F)c5nc(C)n(C(C)CC(=O)O)c5c4)n3)cc2N)CC1, 14.0 mM): 8.3%
8 | 0.49 nM | 0.35 nM | 42 nM | CCN1CCN(Cc2cnc3cc2NC(=O)C[C@@H](C)n2c(C)nc4c(F)cc(cc42)-c2nc(ncc2F)N3)CC1 [Example 2, (R)-4^5-((4-Ethylpiperazin-1-yl)methyl)-1^4,2^5-difluoro-1^2,8-dimethyl-1^1H-3,5-diaza-1(6,1)-benzo[d]imidazola-2(4,2)-pyrimidina-4(2,4)-pyridinacyclooctaphan-6-one] | ring closure, yield of all isomers ([2]; from CCN1CCN(Cc2cnc(Nc3ncc(F)c(-c4cc(F)c5nc(C)n([C@H](C)CC(=O)O)c5c4)n3)cc2N)CC1, 13.8 mM): 7.4%
9 | 0.78 nM | 1.13 nM | 132 nM | CCN1CCN(Cc2cnc3cc2NC(=O)CCn2c(C)nc4c(F)cc(cc42)-c2nc(ncc2F)N3)CC1 [Example 4, 4^5-((4-Ethylpiperazin-1-yl)methyl)-1^4,2^5-difluoro-1^2-methyl-1^1H-3,5-diaza-1(6,1)-benzo[d]imidazola-2(4,2)-pyrimidina-4(2,4)-pyridinacyclooctaphan-6-one] | ring closure, yield of all isomers ([2]; from CCN1CCN(Cc2cnc(Nc3ncc(F)c(-c4cc(F)c5nc(C)n(CCC(=O)O)c5c4)n3)cc2N)CC1, 18.0 mM): 7.3%
